Where two headings read alike, the source gives them in different places.
Experiments:
[1] = test system: 3D7-MR4 trophozoite parasite-infected RBCs; test: Metabolomic profiling (hydrophilic metabolite changes, UHPLC-MS); assay type: cell-based, Plasmodium falciparum
[2] = test system: Plasmodium falciparum 3D7-A10 parasites; test: Stage specificity assay (8-h exposure of synchronized stages, IC50^8h); assay type: cell-based; details: for IC50: Plasmodium falciparum
[3] = test system: asynchronous 3D7-A10 parasite cultures; test: Standard 72-h exposure asexual blood stage susceptibility assay (IC50^72h); assay type: cell-based, Plasmodium falciparum; details: Plasmodium falciparum, 3D7, 72 h, read-out: Overall (72hr assay) Mean IC50 (IC50^72h)

Structure (SMILES): CNc1nc(NCCCN(C)C)c2sc(-c3cccc(C(F)(F)F)c3)cc2n1 [MMV668311]
- changes within the set of metabolites detected (low fold change group) ([1]; 10 × IC50^72h, 2.5 hr, trophozoites): did not induce major changes
- Log2(fold changes) 3-phosphoglycerate ([1]; metabolite 3-phosphoglycerate, log2 fold change): 0.1799
- Log2(fold changes) 4-Pyridoxic acid ([1]; metabolite 4-Pyridoxic acid, log2 fold change): 0.0000
- Log2(fold changes) 4-aminobutyrate ([1]; metabolite 4-aminobutyrate, log2 fold change): 0.0013
- Log2(fold changes) 4-phosphopantetheine ([1]; metabolite 4-phosphopantetheine, log2 fold change): 0.0000
- Log2(fold changes) 4-phosphopantothenate ([1]; metabolite 4-phosphopantothenate, log2 fold change): 0.0507
- Log2(fold changes) 5-aminopentanoic acid ([1]; metabolite 5-aminopentanoic acid, log2 fold change): 0.0000
- Log2(fold changes) 5-methyl-THF ([1]; metabolite 5-methyl-THF, log2 fold change): 0.0000
- Log2(fold changes) 5-phosphoribosyl-1-pyrophosphate ([1]; metabolite 5-phosphoribosyl-1-pyrophosphate, log2 fold change): -0.0449
- Log2(fold changes) 6-phospho-D-gluconate ([1]; metabolite 6-phospho-D-gluconate, log2 fold change): 0.0744
- Log2(fold change) HVDD ([1]; metabolite HVDD): 0.6397
- Log2(fold change) Hydroxyisocaproic acid ([1]; metabolite Hydroxyisocaproic acid): 0.0000
- Log2(fold change) IDP ([1]; metabolite IDP): 0.0000
- Log2(fold change) IMP ([1]; metabolite IMP): 0.0136
- Log2(fold change) Inositol ([1]; metabolite Inositol): 0.0000
- Log2(fold change) Isopentyl-PP ([1]; metabolite Isopentyl-PP): 0.0000
- Log2(fold change) L-arginino-succinate ([1]; metabolite L-arginino-succinate): 0.0000
- Log2(fold change) LD ([1]; metabolite LD): 0.0000
- Log2(fold change) Myristoyl/tetradecanoyl-CoA ([1]; metabolite Myristoyl/tetradecanoyl-CoA): 0.0000
- Log2(fold change) N-Acetyl-L-alanine ([1]; metabolite N-Acetyl-L-alanine): 0.2894
- Log2(fold change) N-acetyl-L-ornithine ([1]; metabolite N-acetyl-L-ornithine): 0.9240
- Log2(fold change) N-acetyl-glucosamine-1/6-phosphate ([1]; metabolite N-acetyl-glucosamine-1/6-phosphate): -0.0813
- Log2(fold change) N-acetyl-glutamate ([1]; metabolite N-acetyl-glutamate): 0.1520
- Log2(fold change) N-acetyl-glutamine ([1]; metabolite N-acetyl-glutamine): 0.0000
- Log2(fold change) N-carbamoyl-L-aspartate ([1]; metabolite N-carbamoyl-L-aspartate): 0.0640
- Log2(fold change) NAD+ ([1]; metabolite NAD+): 0.0000
- Log2(fold change) NADH ([1]; metabolite NADH): 0.1408
- Log2(fold change) NADP+ ([1]; metabolite NADP+): -0.0507
- Log2(fold change) NADPH ([1]; metabolite NADPH): 0.0063
- Log2(fold change) O-acetyl-L-serine ([1]; metabolite O-acetyl-L-serine): 0.0000
- Log2(fold change) Octoluse 8/1P ([1]; metabolite Octoluse 8/1P): 0.0000
- Log2(fold change) Octoluse Bisphosphate ([1]; metabolite Octoluse Bisphosphate): -0.0578
- Log2(fold change) PD ([1]; metabolite PD): -0.3993
- Log2(fold change) PE ([1]; metabolite PE): 0.0346
- Log2(fold change) PEE ([1]; metabolite PEE): 0.4823
- Log2(fold change) PEEK ([1]; metabolite PEEK): 0.0000
- Log2(fold change) PVNF ([1]; metabolite PVNF): 0.0144
- Log2(fold change) Pyroglutamic acid ([1]; metabolite Pyroglutamic acid): 0.0000
- Log2(fold change) Pyrophosphate ([1]; metabolite Pyrophosphate): 0.0000
- Log2(fold change) Ribose-5-phosphate ([1]; metabolite Ribose-5-phosphate): -0.1895
- Log2(fold change) S-adenosyl-L-homocysteine ([1]; metabolite S-adenosyl-L-homocysteine): -0.2447
- Log2(fold change) S-adenosyl-L-methioninamine ([1]; metabolite S-adenosyl-L-methioninamine): 0.0000
- Log2(fold change) S-adenosyl-L-methionine ([1]; metabolite S-adenosyl-L-methionine): 0.0000
- Log2(fold change) S-methyl-5'-thioadenosine ([1]; metabolite S-methyl-5'-thioadenosine): 0.0000
- Log2(fold change) SD ([1]; metabolite SD): 0.2373
- Log2(fold change) SDL ([1]; metabolite SDL): 0.0000
- Log2(fold change) SID ([1]; metabolite SID): 0.1033
- Log2(fold change) Sedoheptulose bisphosphate ([1]; metabolite Sedoheptulose bisphosphate): 0.1946
- Log2(fold change) Thiamine pyrophosphate ([1]; metabolite Thiamine pyrophosphate): 0.0000
- Log2(fold changes) UDP-D-glucose ([1]; metabolite UDP-D-glucose, log2 fold change): 0.0458
- Log2(fold changes) UDP-D-glucuronate ([1]; metabolite UDP-D-glucuronate, log2 fold change): -0.0320
- Log2(fold changes) UDP-N-acetyl-glucosamine ([1]; metabolite UDP-N-acetyl-glucosamine, log2 fold change): -0.0391
- Log2(fold changes) UDP ([1]; metabolite UDP, log2 fold change): -0.7320
- Log2(fold changes) UMP ([1]; metabolite UMP, log2 fold change): -0.3054
- Log2(fold changes) UTP ([1]; metabolite UTP, log2 fold change): 0.0564
- Log2(fold change) hydroxyphenylpyruvate ([1]; metabolite hydroxyphenylpyruvate): 0.0000
- Log2(fold change) hydroxyproline/Aminolevulinate ([1]; metabolite hydroxyproline/Aminolevulinate): 0.0878
- Log2(fold change) hypoxanthine ([1]; metabolite hypoxanthine): 0.2077
- Log2(fold change) indole ([1]; metabolite indole): 0.0000
- Log2(fold change) inosine ([1]; metabolite inosine): 0.0666
- Log2(fold change) isoleucine ([1]; metabolite isoleucine): 0.1965
- Log2(fold change) lactate ([1]; metabolite lactate): 0.0645
- Log2(fold change) leucine ([1]; metabolite leucine): 0.2550
- Log2(fold change) lysine ([1]; metabolite lysine): 0.0000
- Log2(fold change) malate ([1]; metabolite malate): 0.0044
- Log2(fold change) maleic acid ([1]; metabolite maleic acid): -0.0062
- Log2(fold change) methionine ([1]; metabolite methionine): 0.4374
- Log2(fold change) myo-inositol ([1]; metabolite myo-inositol): 0.0000
- Log2(fold change) nicotinamide mononucleotide ([1]; metabolite nicotinamide mononucleotide): 0.0000
- Log2(fold change) nicotinate ([1]; metabolite nicotinate): 0.1094
- Log2(fold change) ornithine ([1]; metabolite ornithine): 0.0000
- Log2(fold change) orotate ([1]; metabolite orotate): -0.2365
- Log2(fold change) orotidine-5'-phosphate ([1]; metabolite orotidine-5'-phosphate): -0.1452
- Log2(fold change) oxaloacetate ([1]; metabolite oxaloacetate): 0.0000
- Log2(fold change) p-aminobenzoate ([1]; metabolite p-aminobenzoate): 0.0000
- Log2(fold change) p-hydroxybenzoate ([1]; metabolite p-hydroxybenzoate): 0.0000
- Log2(fold change) pantothenate ([1]; metabolite pantothenate): -0.0310
- Log2(fold change) phenylalanine ([1]; metabolite phenylalanine): 0.2649
- Log2(fold change) phenylpyruvate ([1]; metabolite phenylpyruvate): 0.0000
- Log2(fold change) phosphoenolpyruvate ([1]; metabolite phosphoenolpyruvate): 0.2026
- Log2(fold change) prephenate ([1]; metabolite prephenate): 0.0000
- Log2(fold change) proline ([1]; metabolite proline): 0.1500
- Log2(fold change) pyridoxine ([1]; metabolite pyridoxine): 0.2387
- Log2(fold change) pyruvate ([1]; metabolite pyruvate): 0.0542
- Log2(fold change) riboflavin ([1]; metabolite riboflavin): 0.0000
- Log2(fold change) ribose ([1]; metabolite ribose): 0.4509
- Log2(fold change) ribose-phosphate ([1]; metabolite ribose-phosphate): -0.2314
- Log2(fold change) ribulose-5-phosphate ([1]; metabolite ribulose-5-phosphate): -0.1585
- Log2(fold change) serine ([1]; metabolite serine): 0.1402
- Log2(fold change) sn-glycerol-3-phosphate ([1]; metabolite sn-glycerol-3-phosphate): 0.1282
- Log2(fold change) succinate/Methylmalonic acid ([1]; metabolite succinate/Methylmalonic acid): 0.1707
- Log2(fold change) succinyl-CoA/methylmalonyl-CoA ([1]; metabolite succinyl-CoA/methylmalonyl-CoA): 0.2947
- Log2(fold change) taurine ([1]; metabolite taurine): 0.0000
- Log2(fold change) thiamine ([1]; metabolite thiamine): 0.0000
- Log2(fold change) threonine/homoserine ([1]; metabolite threonine/homoserine): 0.3600
- Log2(fold change) thymidine ([1]; metabolite thymidine): 0.0000
- Log2(fold changes) thymine ([1]; metabolite thymine, log2 fold change): 0.0000
- Log2(fold changes) trehalose-6-Phosphate ([1]; metabolite trehalose-6-Phosphate, log2 fold change): 0.0000
- Log2(fold changes) tryptophan ([1]; metabolite tryptophan, log2 fold change): 0.2172
- Log2(fold changes) tyrosine ([1]; metabolite tyrosine, log2 fold change): 0.2350
- Log2(fold changes) uridine ([1]; metabolite uridine, log2 fold change): 0.0000
- Ratio lowest IC50 8hr/IC50 72hr ([2]; 3D7-A10): 1.1
- IC50 ([2]; 3D7, read-out: Early rings Mean IC50 (IC50^8h), 8-h exposure 0–8 hr, 3D7-A10, survival at 60 h): 140 nM
- IC50 ([2]; 3D7, read-out: Early trophozoites Mean IC50 (IC50^8h), 8-h exposure 16–24 hr, 3D7-A10, survival at 60 h): 68.9 nM
- IC50 ([2]; 3D7, read-out: Late rings Mean IC50 (IC50^8h), 8-h exposure 8–16 hr, 3D7-A10, survival at 60 h): 97.7 nM
- IC50 ([2]; 3D7, read-out: Late trophozoites Mean IC50 (IC50^8h), 8-h exposure 24–32 hr, 3D7-A10, survival at 60 h): 122 nM
- IC50 ([2]; 3D7, read-out: Schizonts Mean IC50 (IC50^8h), 8-h exposure 32–40 hr, 3D7-A10, survival at 60 h): 382 nM
- Stage of peak activity (Figure 6) ([2]; period when the parasite was most susceptible (lowest IC50^8h)): rings and trophozoites
- IC50 [3]: 63.5 nM
